Drawing on PubChem BioAssay AID652156 (NMMLSC, 2013), this text covers EC50 for three compounds.

The test concerns ER-HoxA9 myeloid cells, GFP+/MAC1+ differentiation, flow cytometry. Put plainly: myeloid differentiation promoters in ER-HoxA9 cells, dose response, cell-based, flow cytometry, Powder Set01 (AID 652156). For orientation: A flow cytometer gives signals particle by particle.
In the case of `Cc1ccc(Nc2nc(=O)c3cccnc3s2)c(Br)c1`, the EC50 (as a rule, the midpoint of the concentration-response curve) was 0.93 µM. `O=C(CCNC(=O)c1ccc(Cl)cc1)NC1CCCc2ccccc21` (stereo not drawn): the EC50 is 2.09 µM. As to `O=C(O)c1cccnc1Nc1ccc(Cl)cc1`, the EC50 was 1.33 µM.
